How the values were obtained:
[1] = system: A549 human lung cancer cells; experiment: ROS assay, dihydroethidium (DHE) fluorescence by flow cytometry, with or without antimycin A; format: cell-based; details: for ROS levels (DHE fluorescence) with antimycin A (AM): AM as ROS inducer, p<0.05
Description: A549 human lung cancer cells were seeded in 6-well plates at 200,000 cells/well for 40 hours, then the medium was removed, and treatments were added. Ubiquinol (coQ10) was dispersed in RPMI medium at three different concentrations (100, 50, and 10 μM) and added to wells (n=3 each), then the volume of each well was completed to 4 ml with medium. Ubiquinol-γ-cyclodextrin (1:10 molar ratio) complex dispersed in RPMI at three different concentrations (equivalent to 100, 50, and 10 μM of ubiquinol) and added to wells (n=3/each) and the volume of the each well was completed to 4 ml with medium._γ-cyclodextrin was added in amounts equivalent to those associated with 100, 50, and 10 μM of the complex to each well (n=3/each) and the volume of the each well was completed to 4 ml with medium._Six wells were left untreated._After 24 h, media were removed, and wells were washed with 5 mM sodium pyruvate in PBS, trypsinized, then collected in 15 ml tubes by centrifugation. Cells were washed with 5 mM sodium pyruvate in PBS, then re-suspended in 1 ml of the same solution._The reagents were added as described in FIG. 14, then incubated at 40 min._Cells were re-suspended and transferred to round-bottom tubes, and analyzed by flow Cytometry.

[2] = system: primary cultures of corneal endothelial cells; experiment: Seahorse XFe96 mitochondrial respiration of primary cultures of corneal endothelial cells; format: cell-based, human; details: uncomplexed coenzyme Q10 (100 μM) or cyclodextrin alone vs diluent control
Description: (§1) Human corneas were obtained by Iowa Lions Eye Bank (ILEB) from nondiabetic donors 60-75 years old and stored in Optisol GS (Bausch+Lomb, Irvine, Calif.) at 4° C. following procurement in accordance with Eye Bank Association of America and ILEB policies and procedures. Endothelial cells were isolated and cultured in Seahorse XFe96 well plates until they reached confluency. Purity of cell cultures were confirmed with anti-zonula occludens 1 (ZO-1) labeling of cellular tight junctions. Once confluent, cells were treated with different concentrations of cyclodextrin-coenzyme Q10 complex in culture (1 μM, 10 μM, or 100 μM) uncomplexed coenzyme Q10 (100 μM), cyclodextrin alone, or diluent control. Mitochondrial respiration was assayed by measuring oxygen consumption using the Seahorse XFe96 Extracellular Flux Analyzer (Agilent Technologies, Santa Clara, Calif.) over 120 minutes (9-minute intervals). Wells were labeled with a nuclear counterstain (DAPI) and nuclei were counted in each well to normalize respirometry data.
Seahorse respiration assays were conducted with MitoQ with doses ranging from 0 to 10 μM. All experiments were performed on corneal endothelial cells in culture and analyzed using the XFe96 Extracellular Flux Analyzer.
as §1, with “MitoQ with doses ranging from 0 to” for “different concentrations of cyclodextrin-coenzyme Q10 complex in culture (1 μM,”, “μM.” for “μM, or 100 μM) uncomplexed coenzyme Q10 (100 μM), cyclodextrin alone, or diluent control.”

[3] = Dispersibility and solubility in water, solvents and media; format: physicochemical; details: for solubility in cell culture: cell culture environments (primary cultures)
Description: 50 mg of kneaded complex added to 10 ml H2O and shaken for 2 hours.
In FIG. 10, the image on the right is 5 mg of CoQ10 added to 10 ml H2O and shaken for 2 hours.
Paired corneas were supplemented with 10 μM ubiquinol (Fuller et al., 2006) (USP analytical standard, Sigma Aldrich, St. Louis, Mo.), 100 μM palmitate-BSA (Pfleger et al., 2015) (Agilent, Santa Clara, Calif.), or diluent only for 5 days, such that one cornea from a donor received treatment while its mate from the same donor was a control. Concentrations were chosen based on previously published studies (Fuller et al., 2006; Pfleger et al., 2015). Diluents were chosen based on supplement solubility. Although several diluents were tried for ubiquinol (water, Optisol-GS, DMSO and ethanol), ethanol was chosen based on its ability to solubilize ubiquinol most successfully. No complexing agents were used to solubilize ubiquinol. Following the 5 days of storage with supplementation, tissues were processed for metabolic and cell viability assays as described below.
Due to its long hydrocarbon side chain, ubiquinol is difficult to solubilize in biocompatible solvents. In this series, several attempts were made to bring this lipid-soluble molecule into aqueous solution. First, ubiquinol was attempted to be dissolved using polar […] known to be biocompatible with CECs (Optisol-GS, water) based on the goal of achieving a high bioavailability for clinical applications. […] Next two organic polar […] solvents, DMSO and absolute ethanol, were tested. DMSO commonly is used as a solvent in cell biology and biochemistry, and both DMSO and ethanol can solubilize hydrocarbons. […] In addition to its lipophilicity, native ubiquinol is also unstable. Although not encountered in this series ubiquinol oxidizes in the presence of oxygen and light and turns yellow, indicating the formation of its oxidized form, ubiquinone. It is therefore necessary to improve the solubility and handleability of ubiquinol for future validations of its effects on oxidative stress related pathways.

[4] = system: human donor corneal endothelial cells; experiment: Mitochondrial respiration assay (Seahorse XFe24 extracellular flux analyzer) of donor corneal endothelium after storage in supplemented Optisol GS; format: cell-based; details: 1 μM coQ10, tissues in storage

Substance: ubiquinol
- ROS inhibition with an increase in concentration ([1]; 10, 50, 100 μM ubiquinol or equivalent): does not result in any significant change in ROS inhibition
- ROS levels (DHE fluorescence) with antimycin A (AM) ([1]; 24 h treatment, listed as Free ubiquinol): failed to decrease ROS levels after AM treatment
- ROS levels (DHE fluorescence) with antimycin A (AM) ([1]; 24 h treatment, listed as free ubiquinol): unable to inhibit ROS
- ROS levels (DHE fluorescence) without ROS induction by AM ([1]; 24 h treatment, no AM): decrease the ROS levels in the cells below the normal levels
- mitochondrial spare respiratory capacity [2]: reduces mitochondrial spare respiratory capacity
- solubility in Optisol-GS storage media after dissolving in ethanol [3]: appeared to remain in solution
- dispersibility in water ([3]; 50 mg kneaded complex or 5 mg CoQ10 in 10 ml H2O, shaken for 2 hours): prefers to accumulate at the air-water interface or to adhere to the glass container
- solubility in cell culture [3]: precipitated out of solution
- solubility in cell culture ([3]; listed as coQ10): not soluble
- solubility in DMSO ([3]; despite heating the solution): precipitated in DMSO
- solubility in Optisol-GS, water ([3]; even after heating): precipitated out of these solutions
- solubility in absolute ethanol ([3]; heated to 37° C., precipitates if not poured immediately into storage media): dissolved
- proton leak [4]: no increase in proton leak
